This is an account of results in US20090325874A1, “Inhibition of inositol 1,4,5-triphosphate receptor calcium channel/cytochrome c interactions and uses thereof” (priority 2008, published 2009).

The subject of assay [1] is caspase-3 activation in Jurkat cells co-cultured with SW620 cells. Description: Caspase-3 like (DEVDase) activity in Jurkat cells co-cultured with SW620 cells. In kind it is cell-based, human. The note with it: for Jurkat cell (lymphocyte) apoptosis induced by co-culture with SW620 cells: summary statement, co-culture with Fas ligand-expressing SW620 colon cancer cells; for caspase-3 activation in Jurkat cells: 24 h co-culture with SW620. As to the method:
(§1) Jurkat T-lymphoma (clone E6-1) and SW620 colon adenocarcinoma cells were purchased and cultured according to the guidelines of American Type Culture Collection (ATCC, Manassas, Va.). SW620 cells grow as adherent monolayers, whereas Jurkat cells grow in suspension. Jurkat cells were co-cultured with SW620 cells by exchanging the culture medium of SW620 cells (80 percent confluent in a 10 cm dish) with 10 ml Jurkat medium containing 1×10^6 Jurkat cells. Co-cultures were incubated for 24 h, after which cell death or caspase activity was determined in Jurkat cells. Pre-loading 1,2-bis(o-aminophenoxy)ethane-N,N,N′,N′-tetraacetic acid (BAPTA) or B-IP3RCYT into Jurkat cells was performed for 30 min at room temperature. Free BAPTA-AM or B-IP3RCYT was removed by media exchange prior to addition to SW620 cells. XestC was similarly pre-incubated with Jurkat cells prior to co-culturing, and remained in the culture medium for the duration of the co-culture experiment.
Caspase activity and cell death were determined specifically in Jurkat cells by removing the medium containing the Jurkat cells into a fresh tube. An additional rinse with culture medium was used to fully recover the Jurkat cells. Adherent SW620 cells remained attached to the culture plate after this rinse as determined by light microscopy. Jurkat cells were pelleted by centrifugation at 1000 g and cell death was determined by propidium iodide staining as described (12). Fluorometric determination of DEVDase (caspase-3 like) activity was performed on lysates prepared from Jurkat cells as described (12, 15).

The test system of assay [2] is Jurkat cells co-cultured with SW620 cells. Description: Jurkat cell death by propidium iodide staining after co-culture with SW620 cells. The note with it: XestC pre-incubation, 24 h co-culture. Set-up: dose or concentration left out as unconfirmed. It is filed as cell-based, human. As to the method:
as §1
Caspase activity and cell death were determined specifically in Jurkat cells by removing the medium containing the Jurkat cells into a fresh tube. […] Adherent SW620 cells remained attached to the culture plate after this rinse as determined by light microscopy. Jurkat cells were pelleted by centrifugation at 1000 g and cell death was determined by propidium iodide staining as described (12). […]

Regarding `O=C(O)CN(CC(=O)O)c1ccccc1OCCOc1ccccc1N(CC(=O)O)CC(=O)O` [BAPTA, 1,2-bis(o-aminophenoxy)ethane-N,N,N′,N′-tetraacetic acid], in assay [1], the “Jurkat cell (lymphocyte) apoptosis induced by co-culture with SW620 cells” value is on record as “dose-dependently inhibited Jurkat cell apoptosis”.

As for `CC(=O)OCOC(=O)CN(CC(=O)OCOC(C)=O)c1ccccc1OCCOc1ccccc1N(CC(=O)OCOC(C)=O)CC(=O)OCOC(C)=O` [BAPTA-AM, aminomethoxy ester form of BAPTA (1,2-bis(o-aminophenoxy)ethane-N,N,N′,N′-tetraacetic acid], the “caspase-3 activation in Jurkat cells” value in assay [1] (100 and 500 nM BAPTA-AM pre-loaded 30 min, p<0.05 vs no pre-treatment) was “Significant attenuation of caspase-3 activation”.

Turning to `C1CCC[C@H]2CCCN3CC[C@@H](CCCCCC[C@@H]4CCCN5CC[C@@H](CC1)O[C@@H]45)O[C@@H]23` [XestC, Xestospongin C], in assay [1] (XestC 1 to 20 micromolar, pre-incubated and kept in medium), the “caspase-3 activation in Jurkat cells” value is given as “inhibited caspase-3 activation”. Also, the “Jurkat cell (lymphocyte) apoptosis induced by co-culture with SW620 cells” value in assay [1] is recorded as “dose-dependently inhibited Jurkat cell apoptosis”. Moreover, the “Jurkat cell death induced by co-culture with SW620 cells” value in assay [2] was “potently blocked Jurkat cell death”.
